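Exposure lasted 48 hours, with cells grown in 96-well plates and compounds tested at five concentrations. Abbreviation: GI50, concentration required for 50% inhibition of growth.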 Activity calls are given as the source filed them. Rule as the data show it: active = GI50 up to about 1.1 µM and inactive = higher.
What was measured:
Assay in all cases: NCI-60 cell line screen, 48 h
[1] = system: EKVX
[2] = system: U-251
[3] = system: MDA-MB-435
[4] = system: SF-295
[5] = system: KM12
[6] = system: OVCAR-5
[7] = system: SK-MEL-5
[8] = system: SF-268
[9] = system: M14
[10] = system: SR
[11] = system: SF-539
[12] = system: MOLT-4
[13] = system: HL-60
[14] = system: HCT-116
[15] = system: NCI/ADR-RES
[16] = system: LOX IMVI
[17] = system: UO-31
[18] = system: TK-10
[19] = system: HCT-15
[20] = system: HOP-62
[21] = system: OVCAR-3
[22] = system: K562
[23] = system: DU-145
[24] = system: NCI-H23
[25] = system: SN12C
[26] = system: 786-0
[27] = system: SNB-75
[28] = system: HCC 2998
[29] = system: CCRF-CEM
[30] = system: UACC-62
[31] = system: NCI-H522
[32] = system: HOP-92
[33] = system: MCF7
[34] = system: OVCAR-4
[35] = system: MDA-MB-231
[36] = system: PC-3
[37] = system: BT-549
[38] = system: NCI-H460
[39] = system: SK-OV-3
[40] = system: IGROV-1
[41] = system: SNB-19
[42] = system: MDA-N
[43] = system: HT-29
[44] = system: T47D
[45] = system: SW-620
[46] = system: OVCAR-8
[47] = system: A549
[48] = system: UACC-257
[49] = system: COLO 205
[50] = system: SK-MEL-28
[51] = system: SK-MEL-2
[52] = system: RPMI-8226
[53] = system: RXF 393
[54] = system: Malme-3M
[55] = system: CAKI-1
[56] = system: A498
[57] = system: NCI-H226
[58] = system: ACHN

With `CC(=O)NC1CC(C(C)(C)NC(C)=O)CC=C1C` (configuration not stated) the GI50 [1] was > 100 µM (inactive), the GI50 [2] was > 100 µM (inactive) and the GI50 [3] was > 100 µM (inactive). The GI50 [4] was > 100 µM (inactive), the GI50 [5] was > 100 µM (inactive) and the GI50 [6] was > 100 µM (inactive). For the same compound, the GI50 [7] was > 100 µM (inactive), the GI50 [8] was > 100 µM (inactive) and the GI50 [9] was > 100 µM (inactive). The GI50 [10] was > 100 µM (inactive), the GI50 [11] was > 100 µM (inactive) and the GI50 [12] was > 100 µM (inactive). For the same compound, the GI50 [13] was > 100 µM (inactive), the GI50 [14] was > 100 µM (inactive) and the GI50 [15] was > 100 µM (inactive). The GI50 [16] was > 100 µM (inactive), the GI50 [17] was > 100 µM (inactive) and the GI50 [18] was > 100 µM (inactive). For the same compound, the GI50 [19] was > 100 µM, the GI50 [20] was > 100 µM (inactive) and the GI50 [21] was > 100 µM (inactive). For the same compound, the GI50 [22] was > 100 µM (inactive), the GI50 [23] was > 100 µM (inactive) and the GI50 [24] was > 100 µM (inactive). The GI50 [25] was > 100 µM (inactive), the GI50 [26] was > 100 µM (inactive) and the GI50 [27] was > 100 µM (inactive). The GI50 [28] was > 100 µM (inactive), the GI50 [29] was > 100 µM (inactive) and the GI50 [30] was > 100 µM (inactive). For the same compound, the GI50 [31] was > 100 µM (inactive), the GI50 [32] was > 100 µM (inactive) and the GI50 [33] was > 100 µM (inactive). For the same compound, the GI50 [34] was > 100 µM (inactive), the GI50 [35] was > 100 µM (inactive) and the GI50 [36] was > 100 µM (inactive). For the same compound, the GI50 [37] was > 100 µM (inactive), the GI50 [38] was > 100 µM (inactive) and the GI50 [39] was > 100 µM (inactive). The GI50 [40] was > 100 µM (inactive), the GI50 [41] was > 100 µM (inactive) and the GI50 [42] was > 100 µM (inactive). The GI50 [43] was > 100 µM (inactive), the GI50 [44] was > 100 µM (inactive) and the GI50 [45] was > 100 µM (inactive). The GI50 [46] was > 100 µM (inactive), the GI50 [47] was > 100 µM (inactive) and the GI50 [48] was > 100 µM (inactive). The GI50 [49] was > 100 µM (inactive) and the GI50 [50] was > 100 µM (inactive).

`COc1c(Br)cc(/C=C(\C#N)c2ccccn2)cc1Br` was tested, and the GI50 [1] was 1.26 µM (inactive), the GI50 [2] was 13.3 µM (inactive) and the GI50 [4] was 19.2 µM (inactive). For the same compound, the GI50 [5] was > 100 µM (inactive), the GI50 [6] was > 100 µM (inactive) and the GI50 [7] was > 100 µM (inactive). For the same compound, the GI50 [8] was 23.2 µM (inactive), the GI50 [9] was > 100 µM (inactive) and the GI50 [10] was > 100 µM (inactive). The GI50 [11] was 33.4 µM (inactive), the GI50 [12] was > 100 µM (inactive) and the GI50 [51] was 13.8 µM (inactive). The GI50 [13] was > 100 µM (inactive), the GI50 [14] was 30.3 µM (inactive) and the GI50 [15] was 39.4 µM (inactive). For the same compound, the GI50 [17] was > 100 µM (inactive), the GI50 [52] was > 100 µM (inactive) and the GI50 [18] was 67.6 µM (inactive). The GI50 [19] was 84.9 µM, the GI50 [20] was 22.2 µM (inactive) and the GI50 [21] was > 100 µM (inactive). For the same compound, the GI50 [22] was > 100 µM (inactive), the GI50 [23] was 37.8 µM (inactive) and the GI50 [24] was 41.7 µM (inactive). For the same compound, the GI50 [25] was > 100 µM (inactive), the GI50 [53] was 22.8 µM (inactive) and the GI50 [26] was 4.09 µM (inactive). For the same compound, the GI50 [54] was 44.7 µM (inactive), the GI50 [27] was 0.891 µM (active) and the GI50 [28] was > 100 µM (inactive). For the same compound, the GI50 [55] was > 100 µM (inactive), the GI50 [29] was > 100 µM (inactive) and the GI50 [30] was 10.8 µM (inactive). The GI50 [56] was < 0.01 µM (active), the GI50 [31] was > 100 µM (inactive) and the GI50 [33] was 26.1 µM (inactive). For the same compound, the GI50 [57] was 48.4 µM (inactive), the GI50 [36] was > 100 µM (inactive) and the GI50 [37] was 22.8 µM (inactive). The GI50 [38] was > 100 µM (inactive), the GI50 [39] was 15.3 µM (inactive) and the GI50 [58] was > 100 µM (inactive). For the same compound, the GI50 [40] was 51.4 µM (inactive), the GI50 [41] was > 100 µM (inactive) and the GI50 [42] was > 10 µM (inactive). The GI50 [43] was > 100 µM (inactive), the GI50 [45] was > 100 µM (inactive) and the GI50 [46] was 34.5 µM (inactive). For the same compound, the GI50 [47] was > 100 µM (inactive), the GI50 [48] was > 100 µM (inactive) and the GI50 [49] was > 100 µM (inactive). The GI50 [50] was > 100 µM (inactive).

With `NNC(=O)COc1nc(-c2cccs2)nc2ccc(I)cc12` the GI50 [1] was 18.9 µM (inactive), the GI50 [2] was 18.7 µM (inactive) and the GI50 [3] was 20.1 µM (inactive). The GI50 [4] was 28.8 µM (inactive), the GI50 [5] was 17.1 µM (inactive) and the GI50 [6] was 28.4 µM (inactive). The GI50 [7] was 20.1 µM (inactive), the GI50 [8] was 20.8 µM (inactive) and the GI50 [9] was 23.1 µM (inactive). The GI50 [10] was 15.8 µM (inactive), the GI50 [12] was 25.7 µM (inactive) and the GI50 [51] was 24.5 µM (inactive). The GI50 [14] was 16.6 µM (inactive), the GI50 [15] was 28.1 µM (inactive) and the GI50 [16] was 17.6 µM (inactive). For the same compound, the GI50 [17] was 21.1 µM (inactive), the GI50 [18] was 18.2 µM (inactive) and the GI50 [19] was 20.7 µM. For the same compound, the GI50 [20] was 27.3 µM (inactive), the GI50 [21] was 15.9 µM (inactive) and the GI50 [23] was 21.7 µM (inactive). For the same compound, the GI50 [24] was 15.3 µM (inactive), the GI50 [25] was 23.1 µM (inactive) and the GI50 [53] was 34.3 µM (inactive). The GI50 [26] was 25.5 µM (inactive), the GI50 [54] was 17 µM (inactive) and the GI50 [27] was 22.7 µM (inactive). The GI50 [28] was 20 µM (inactive), the GI50 [55] was 17.6 µM (inactive) and the GI50 [30] was 19.8 µM (inactive). For the same compound, the GI50 [31] was 18.7 µM (inactive), the GI50 [32] was 18 µM (inactive) and the GI50 [33] was 15.8 µM (inactive). For the same compound, the GI50 [34] was 21.4 µM (inactive), the GI50 [57] was 19.9 µM (inactive) and the GI50 [36] was 25.4 µM (inactive). For the same compound, the GI50 [37] was 15.3 µM (inactive), the GI50 [38] was 21.8 µM (inactive) and the GI50 [39] was 20.6 µM (inactive). For the same compound, the GI50 [58] was 22.5 µM (inactive), the GI50 [40] was 18.4 µM (inactive) and the GI50 [41] was 13.4 µM (inactive). For the same compound, the GI50 [42] was 31.7 µM (inactive), the GI50 [43] was 34.4 µM (inactive) and the GI50 [44] was 1.47 µM (inactive). For the same compound, the GI50 [45] was 34.5 µM (inactive), the GI50 [46] was 29 µM (inactive) and the GI50 [47] was 18.7 µM (inactive). For the same compound, the GI50 [49] was 26.8 µM (inactive) and the GI50 [50] was 24.8 µM (inactive).

Source: ChEMBL document CHEMBL1201862, “PubChem BioAssay data set” (2004)
